Source: US8901305B2, “Aryl lactam kinase inhibitors” (Bristol-Myers Squibb Company, priority 2012, dated 2014)

How the values were obtained:
[1] = target: T1, GST-Xa-hAAK1 (Homo sapiens, UniProt Q2M2I8); assay: AAK1 kinase assay; assay type: biochemical; details: ATP 22 μM, 3 hours at room temperature
T1 construct: made in house
Procedure: The assays were performed in U-bottom 384-well plates. […] The reactions were initiated by the combination of bacterially expressed, GST-Xa-hAAK1 with substrates and test compounds. The reactions were incubated at room temperature for 3 hours and terminated by adding 60 μl of 35 mM EDTA buffer to each sample. The reactions were analyzed on the Caliper LabChip 3000 (Caliper, Hopkinton, Mass.) by electrophoretic separation of the fluorescent substrate and phosphorylated product. […] Compounds were dissolved at 10 mM in dimethylsulfoxide (DMSO) and evaluated at eleven concentrations. IC50 values were derived by non-linear regression analysis.

[2] = target: T2, AAK1 (full length human) with AP2M1 in HEK293F cells (Homo sapiens, UniProt Q2M2I8); assay: HEK281 cell-based assay (phospho-mu2 Western blot in transfected HEK293F cells); details: 3 hours, inhibition of mu2 phosphorylation
T2 construct: expressed in transfected cells; host or cells: HEK293F
Procedure: HEK293F cells were cultured in media containing DMEM (Gibco, cat. #11965), 10% FBS (SAFC Biosciences, cat. #12103C), 1×GPS (glutamine, penicillin and streptomycin). On day one, cells were plated on a 10 cm dish so that they are ˜80% confluent at time of transfection. Roughly 12 million cells were in a 10 cm dish at time of transfection. On day two, each dish was transfected with 48 ug DNA and 144 ul Lipofectamine 2000 (Invitrogen, cat. #11668-019). The DNA was comprised of a mixture (per 10 cm dish) containing 3 ug AAK1/HA/pIRES (full length human, NCBI accession no. NP_055726.2), 45 μg Flag/AP2MI/pcDNA (full length human), and 1.5 ml OPTI-MEM. The Lipofectamine 2000 is made up of a mixture (per 10 cm dish) containing 144 μl Lipofectamine 2000 and 1.5 ml OPTI-MEM. Each mixture was transferred to individual 15 ml tubes and incubated at RT for 5 minutes, and then the two mixes were combined and incubated at RT for 20 minutes. Growth media was then aspirated from each 10 cm plate and replaced with 10 ml of DMEM+10% FBS (no GPS). Finally, 3 ml DNA/Lipofectamine mix was added to each 10 cm dish and mix gently followed by incubate of plate overnight at 37° C. and 5% CO2.
On day three, compounds were diluted in 100% DMSO at 1000× final concentration, followed by 3-fold serial dilutions for a total of 5 concentrations tested. Four compounds were tested per 10 cm dish. One ul of each compound dilution was then pipetted into a deep-well, 96-well plate, followed by addition of 500 μl DMEM+0.5% FBS into each well for a 2× final concentration of each compound. Cells were resuspended in a 10 cm dish by simple pipetting (HEK293 cells come off the plate that easy at this point) and then transferred to a 50 ml conical tube and pelleted by centrifugation at 1000 rpm for 5 min. Cell pellets were then resuspended in 2.75 ml DMEM+0.5% FBS per 10 cm dish and 100 μl of cell suspension transferred into each well of 96-well TC plate. Finally, 100 μl of 2× compound diluted in DMEM+0.5% FBS was then added into wells containing cell suspension for a 1× final concentration. Plates were then incubated at 37° C. and 5% CO2 for 3 hours followed by transferring of cell suspensions from each well into 12-tube PCR strips. The PCR strips were spun in a tip rack at 1000 rpm for 5 minutes to pellet cells and media was then removed by pipetting without disturbing the cell pellet.
To prepare for Western Blot analysis, cell pellets were resuspend in 40 ul 1×LDS-PAGE sample buffer (Invitrogen, cat. # NP0008)+2× Halt phosphatase and protease inhibitor cocktail (Thermo Scientific, cat. #1861284), followed by sonicating each with microtip sonicator set at 5 for 8-10 seconds. Five ul of 10× NuPage Sample Reducing Agent (with […]) was to each sample followed by heat denaturing at 70 C for 10 min on PCR machine. A total of 10 μl per sample was loaded into each lane of a 4-20% Tris-Glycine Criterion 26-well gel (Biorad, cat. #345-0034) for the phospho-mu2 blot and 10 μl per lane in a 4-12% Bis-Tris (+MES buffer) NuPAGE 26-well gel (Invitrogen, cat. # WG1403BX10) for the mu2 blot. For controls, 2 ng of phospho-mu2 or 20 ng mu2/Flag proteins were loaded in the last well of each gel. After SDS-PAGE, samples on each gel were transferred to PVDF membrane using an iBlot and membranes were blocked for one hour in TBST+5% milk, followed by wash 3× for 5-10 min with TBST. Criterion gels were probed with rabbit anti-phospho-mu2 (1:5000; a rabbit polyclonal antibody produced by New England Peptide and affinity purified at Lexicon) in TBST+5% BSA, whereas, NuPAGE gels were probed with mouse anti-Flag (1:500; Sigma, cat. # F1804) in TBST+5% milk, and these primary antibodies were incubated overnight at 4° C. on a rocker. […]

T1 sequence (Q2M2I8 whole entry): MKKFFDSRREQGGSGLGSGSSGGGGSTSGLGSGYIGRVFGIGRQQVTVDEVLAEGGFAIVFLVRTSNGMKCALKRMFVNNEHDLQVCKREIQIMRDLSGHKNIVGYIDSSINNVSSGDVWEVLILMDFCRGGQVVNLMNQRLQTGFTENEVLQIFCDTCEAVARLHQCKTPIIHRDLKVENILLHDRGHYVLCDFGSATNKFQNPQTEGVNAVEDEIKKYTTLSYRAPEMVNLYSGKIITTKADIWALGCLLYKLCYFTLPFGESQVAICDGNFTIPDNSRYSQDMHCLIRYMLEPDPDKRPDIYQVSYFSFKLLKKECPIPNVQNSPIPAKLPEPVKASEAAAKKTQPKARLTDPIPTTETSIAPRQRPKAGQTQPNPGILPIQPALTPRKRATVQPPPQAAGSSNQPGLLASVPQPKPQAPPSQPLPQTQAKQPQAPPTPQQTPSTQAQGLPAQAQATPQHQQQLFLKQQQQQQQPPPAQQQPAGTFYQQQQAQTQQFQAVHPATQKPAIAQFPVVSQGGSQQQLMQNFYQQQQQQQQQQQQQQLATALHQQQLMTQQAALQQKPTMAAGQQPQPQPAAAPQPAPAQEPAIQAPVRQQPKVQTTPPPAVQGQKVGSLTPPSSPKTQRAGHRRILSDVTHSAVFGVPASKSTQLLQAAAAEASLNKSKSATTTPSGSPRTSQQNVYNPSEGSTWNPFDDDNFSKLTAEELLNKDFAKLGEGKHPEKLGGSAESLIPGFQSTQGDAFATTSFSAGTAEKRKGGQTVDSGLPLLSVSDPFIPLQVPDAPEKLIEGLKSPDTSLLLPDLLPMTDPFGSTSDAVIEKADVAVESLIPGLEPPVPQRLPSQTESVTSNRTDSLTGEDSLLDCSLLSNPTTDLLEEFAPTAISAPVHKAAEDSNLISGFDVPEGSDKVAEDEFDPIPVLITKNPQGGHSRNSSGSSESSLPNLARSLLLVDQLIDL
T2 sequence (Q2M2I8 whole entry): as above

| SMILES | IC50 ([1]; given as IC50 range) [nM] | IC50 [2] [nM] | IC50 [1] [nM] | IC50 ([2]; given as IC50 range) [nM] |
| --- | --- | --- | --- | --- |
| Cc1nccc2c1c(=O)n(C)c1cc(OC(C)[C@@H](N)CC(C)C)ccc21 (mixture of isomers) [Example 33, 8-(((2S,3S)-3-amino-5-methylhexan-2-yl)oxy)-4,6 dimethylbenzo[c][2,7]naphthyridin-5(6H)-one] | 10 to 100 | 11 |  |  |
| CC(C)C[C@H](N)COc1ccc2c(c1)[nH]c(=O)c1cnccc12 [Example 1, (S)-8-(2-amino-4-methylpentyloxy)benzo[c][2,7]naphthyridin-5(6H)-one] |  | 14 | 5.7 |  |
| CC(C)C[C@H](N)COc1ccc2c3ccncc3c(=O)n(C)c2c1 [Example 2, (S)-8-((2-amino-4-methylpentyl)oxy)-6-methylbenzo[c][2,7]naphthyridin-5(6H)-one] | 1 to 10 | 7 |  |  |
| CC(C)C[C@H](N)COc1cc2c(cc1Br)c1ccncc1c(=O)n2C [Example 3, (S)-8-((2-amino-4-methylpentyl)oxy)-9-bromo-6-methylbenzo[c][2,7]naphthyridin-5(6H)-one] |  | 1.6 | 2.7 |  |
| Cc1cc2c3ccncc3c(=O)n(C)c2cc1OC[C@@H](N)CC(C)C [Example 4, (S)-8-((2-amino-4-methylpentyl)oxy)-6,9-dimethylbenzo[c][2,7]naphthyridin-5(6H)-one] |  | 2.4 |  |  |
| CC(C)C[C@H](N)COc1cc2c(cc1C#N)c1ccncc1c(=O)n2C [Example 5, (S)-8-((2-amino-4-methylpentyl)oxy)-6-methyl-5-oxo-5,6 dihydrobenzo[c][2,7]naphthyridine-9-carbonitrile] |  | 2.5 |  |  |
| CC(C)C[C@H](N)COc1cc2c(cc1C1CC1)c1ccncc1c(=O)n2C [Example 6, (S)-8-((2-amino-4-methylpentyl)oxy)-9-cyclopropyl-6-methylbenzo[c][2,7]naphthyridin-5(6H)-one] | 1 to 10 | 2.1 |  |  |
| C=CCn1c(=O)c2cnccc2c2ccc(OC[C@@H](N)CC(C)C)cc21 [Example 9, (S)-6-allyl-8-((2-amino-4-methylpentyl)oxy)benzo[c][2,7]naphthyridin-5(6H)-one] |  | 24 | 9.7 |  |
| CC(C)C[C@H](N)COc1c(Cl)cc2c3ccncc3c(=O)n(C)c2c1Cl [Example 10, (S)-8-((2-amino-4-methylpentyl)oxy)-7,9-dichloro-6-methylbenzo[c][2,7]naphthyridin-5(6H)-one] |  | 29 |  |  |
| CC(C)C[C@H](N)COc1cc2c(cc1F)c1ccncc1c(=O)n2C [Example 14, (S)-8-((2-amino-4-methylpentyl)oxy)-9-fluoro-6-methylbenzo[c][2,7]naphthyridin-5(6H)-one] |  |  | 7 | 1 to 10 |
| Cn1c(=O)c2cnccc2c2ccc(OCC(N)CCC(F)(F)F)cc21 (stereo not shown) [Example 15, 8-(2-amino-5,5,5-trifluoropentyloxy)-6-methylbenzo[c][2,7]naphthyridin-5(6H)-one] | 10 to 100 |  |  | 10 to 100 |
| Cc1nccc2c1c(=O)n(C)c1cc(OC[C@@H](N)CC(C)C)ccc21 [Example 16, (S)-8-((2-amino-4-methylpentyl)oxy)-4,6-dimethylbenzo[c][2,7]naphthyridin-5(6H)-one] | 10 to 100 |  |  | 10 to 100 |
| CC(C)C[C@H](N)COc1ccc2c3ccnc(N)c3c(=O)n(C)c2c1 [Example 17, (S)-4-amino-8-(2-amino-4-methylpentyloxy)-6-methylbenzo[c][2,7]naphthyridin-5(6H)-one] |  |  | 3 | 1 to 10 |
| Cc1nccc2c1c(=O)n(C)c1cc(OC[C@@H](N)CC(C)C)c(C(F)F)cc21 [Example 27, (S)-8-((2-amino-4-methylpentyl)oxy)-9-(difluoromethyl)-4,6-dimethylbenzo[c][2,7]naphthyridin-5(6H)-one] |  | 0.3 |  |  |

Second part, the molecule after the results:

| IC50 ([1]; given as IC50 range) [nM] | IC50 [2] [nM] | IC50 [1] [nM] | IC50 ([2]; given as IC50 range) [nM] | SMILES |
| --- | --- | --- | --- | --- |
|  |  | 3.9 | 10 to 100 | Cc1nccc2c1c(=O)n(C)c1cc(OC[C@](C)(N)CC(C)C)ccc21 (single isomer, unassigned) [Example 37] |
|  |  | 11 | 10 to 100 | CC(C)CC(C)(N)COc1ccc2c3ccncc3c(=O)n(C)c2c1 (single isomer, unassigned) [Example 58, 8-((2-amino-2,4-dimethylpentyl)oxy)-6-methylbenzo[c][2,7]naphthyridin-5(6H)-one] |
| 1 to 10 |  |  | 10 to 100 | CC(C)CC(C)(N)COc1ccc2c3ccncc3c(=O)n(C)c2c1 (single isomer, unassigned) [Example 59, 8-((2-amino-2,4-dimethylpentyl)oxy)-6-methylbenzo[c][2,7]naphthyridin-5(6H)-one] |
| 1 to 10 |  |  | 10 to 100 | Cc1nccc2c1c(=O)n(C)c1cc(OC[C@@H](N)CC(C)C(F)(F)F)ccc21 (single isomer, unassigned) [Example 88] |
|  | 5 |  |  | CC(C)C[C@H](N)COc1cc2c(cc1Cl)c1ccncc1c(=O)n2C [Example 43, (S)-8-((2-amino-4-methylpentyl)oxy)-9-chloro-6-methylbenzo[c][2,7]naphthyridin-5(6H)-one] |
|  | 0.6 |  |  | Cc1nccc2c1c(=O)[nH]c1cc(OC[C@@H](N)CC(C)C)c(Br)cc12 [Example 49, (S)-8-(2-amino-4-methylpentyloxy)-9-bromo-4-methylbenzo[c][2,7]naphthyridin-5(6H)-one] |
|  |  |  | 1 to 10 | CN[C@H](COc1cc2c(cc1C#N)c1ccnc(C)c1c(=O)n2C)CC(C)C [Example 65, (S)-4,6-dimethyl-8-(4-methyl-2-(methylamino)pentyloxy)-5-oxo-5,6-dihydrobenzo[c][2,7]naphthyridine-9-carbonitrile] |
| 10 to 100 |  |  |  | CN[C@H](COc1ccc2c3ccnc(C)c3c(=O)n(C)c2c1)CC(C)C [Example 95, (S)-4,6-dimethyl-8-(4-methyl-2-(methylamino)pentyloxy)benzo[c][2,7]naphthyridin-5(6H)-one] |
| 100 to 2000 |  |  |  | Cc1nccc2c1c(=O)n(C)c1cc(OC[C@@H](N)CC(C)C)c(C(=O)N(C)C)cc21 [Example 96, (S)-8-((2-amino-4-methylpentyl)oxy)-N,N,4,6-tetramethyl-5-oxo-5,6-dihydrobenzo[c][2,7]naphthyridine-9-carboxamide] |
| 1 to 10 |  |  |  | Cc1nccc2c1c(=O)[nH]c1c(F)c(OC[C@@H](N)CC(C)C)c(Br)cc12 [Example 100, (S)-8-(2-amino-4-methylpentyloxy)-9-bromo-7-fluoro-4-methylbenzo[c][2,7]naphthyridin-5(6H)-one] |
| 1 to 10 |  |  |  | Cc1nccc2c1c(=O)[nH]c1cc(OCC(C)(N)CC(C)C)c(F)cc12 (stereo not shown) [Example 102, 8-(2-amino-2,4-dimethylpentyloxy)-9-fluoro-4-methylbenzo[c][2,7]naphthyridin-5(6H)-one] |
| 10 to 100 |  |  |  | Cc1nccc2c1c(=O)[nH]c1c(F)c(OCC(C)(N)CC(C)C)ccc12 (stereo not shown) [Example 105, 8-(2-amino-2,4-dimethylpentyloxy)-7-fluoro-4-methylbenzo[c][2,7]naphthyridin-5(6H)-one] |
